Assay results taken from US8877949B2, “Furo[3,2-g]chromene compounds and uses thereof” (Shenyang Pharmaceutical University, priority 2010, dated 2014).

What was measured:
[1] = tested on: LDL cell-mediated oxidation; assay: Inhibition of LDL oxidation, antioxidant activity (TBARS); assay type: cell-based, Swine; conditions: Sus scrofa; compound 5 μM, 12.5 μg/mL LDL, 37° C., 4 hours; n = 2; read-out: Oxidation inhibition rate
From the text: Swine aortas were obtained from a slaughterhouse, washed, and then transferred into cold PBS. Epithelial cells were collected from the aortas. Particularly, in order to collect the epithelial cells, intercostal blood vessel of the aorta was knotted, and one end of the aorta was clamped with a forceps. Fresh 0.2% collagenase (Sigma Type I) which had been filtered for sterilization was placed into the blood vessel, and another end of the blood vessel was clamped with a forceps so as to form a closed system. The aortas were cultured at 37° C. for 15-20 min, then collagenase solution was collected and centrifuged for 5 min. The resultant precipitate was resuspended in 7 mL epithelial cell medium (i.e. a DMEM/Ham'S F12 medium without phenolsulfonphthalein but supplemented with carbon stripped FBS (5%)), then seeded in a 100 mm dish and cultured at 37° C., 5% CO2. Twenty minutes later, the cells were rinsed with PBS, and a fresh medium was added. The above process was repeated for 24 hours. After about one week, the cells were confluent. Usually, these epithelial cells were fed twice per week, and seeded with a ratio of 1:7 after the action of trypsin during confluence. In the case that the compound (5 μM) to be evaluated existed, 12.5 μg/mL LDL cell-mediated oxidation was carried out at 37° C. for 4 hours. The result was expressed as the percentage of oxidation inhibition, which was determined by analyzing free aldehyde by the TBARS (Thiobarbituric acid reactive substances) method.

uteri = assay: Uterotrophic/anti-uterotrophic assay in juvenile rats (4 days); assay type: in vivo, rat; conditions: immature female Sprague-Dawley rats, i.p., dose not stated, n = 2
Method: The estrogen and anti-estrogen properties of the compound can be tested in the uterotrophic assay (4 days) in juvenile rats. Immature rats (Sprague-Dawley rats) (female, 18 days old) were divided into 6 test groups. All these animals were i.p. injected with 10 μg of the compound, 100 μg of the compound per day, (100 μg of the compound and 1 μg 176 estradiol), so as to investigate anti-estrogens; and treated with 1 μg of 176 estradiol, wherein 50% DMSO/50% saline was used as injection media. These animals were sacrificed by CO2 asphyxiation on Day 4. Their uteri were extracted, and excessive fats and all liquid were removed. Then the wet weight of the uteri was measured. A part of one corner of the uterus was separated and analyzed histologically. The rest part was used to isolate whole RNA, so as to evaluate the expression of complement component 3 gene.

[2] = tested on: DU-145 prostate cancer cells; assay: Effect on the proliferation of prostate cancer cells; assay type: cell-based; conditions: Homo sapiens, DU-145, 120 h; 5 days, Cyquant kit; n = 2
Method: DU-145 prostate cancer cells were plated onto a 96-well dish, in a density of 2×10^3 cells/well in a MEM Eagles medium without phenol red. Such a medium comprises Earles' balanced salt, 1% antibiotic-antifungal agent, 2 mM glutamine, 0.1 mM nonessential amino acids, 1 mM sodium pyruvate and 10% carbon stripped FCS. The next day, the compound and vehicle (0.2% DMSO) were added, and the medium was refreshed every 48 hours. The cultivation was stopped 5 days later. Proliferation was analyzed using the above Cyquant kit.

MCF-7/ERE = MCF-7/ERE anti-proliferation assay (ERE-tk-luciferase); assay type: cell-based; conditions: Homo sapiens, MCF7; n = 2
Method: Stock solutions (usually, 0.1 M) of the test compounds were prepared in DMSO, and then diluted by 10-100 folds in DMSO, so as to achieve the working solutions with a concentration of 1-10 mM. The stock solutions (in DMSO) were stored at 4° C. (0.1 M) or −20° C. (<0.1 M). MCF-7 cells were passaged twice per week using a growth medium (i.e. a D-MEM/F-12 medium). The cells were kept in a 37° C., aerated flask in an incubator filled with 5% CO2/95% humid air. One day before the treatment, a 96-well titration plate was coated with the cells in the medium, 25000 cells/well, and then cultured at 37° C., overnight.
The cells were transfected with 50 μL/well of 1/10 diluted adenovirus 5-ERE-tk-luciferase in the test medium (i.e. a D-MEM/F-12 medium without phenolsulfonphthalein) for 2 h. Then each well was washed once with 150μλ of the test medium. At last, the cells were divided into several replicates and treated at 37° C. for 24 h, wherein 8 wells were treated with 150μλ/well vehicle (≦0.1% v/v DMSO) or the compound diluted by ≧1000 folds with the test medium.
A primary screen of the test compounds was conducted with a single dose of 1 μM, wherein the test compound was alone (an agonist mode) or in combination with 0.1 nM 17β estradiol (EC80: an antagonist mode). Each 96-well plate also contained a vehicle control group (0.1% v/v DMSO) and an agonist control group (0.1 or 1 nM 17β estradiol). In the agonist and/or antagonist mode, a dose-response experiment was conducted for the active compounds which were increased by logarithm of 10^−14˜10^−5 M. Based on these dose-response curves, EC50 and IC50 values were determined respectively. The final titration wells in each treatment groups contained 5 μL of 3×10^−5 M ICC-182780 (10^−6 M final concentration), as an ER antagonist control.
After the treatment, the cells were lysed in 25 μL/well of 1× cell-culture lytic agent (Promega Corporation) for 15 min. Cell lysate (20 μL) was transferred into a 96-well photometer plate. The luciferase activity was measured with 100 μL/well of the substrate for luciferase (Promega Corporation) in MicroLumat LB 96P photometer (EG&G Berthold). Before adding the substrate, a background measurement was performed for each well for 1 s. After adding the substrate, the luciferase activity was measured after 1 s delay and within 10 s. The data obtained from the photometer were analyzed by JMF software (SAS Institute). Using this program, the background reading of the luciferase activity in each well was subtracted, and then the average and standard deviation were calculated for each group of treatment.
The above luciferase data were subjected to a logarithmic transformation, and the weights of the transformed results which were far away from the median was reduced using Huber M-estimator. The transformed and weighted data were analyzed using JMF software, so as to conduct a one-way ANOVA (D test). The results of the compound treatment groups were compared with that of a vehicle control group in the agonist mode, or with that of a positive agonist control group in the antagonist mode (0.1 nM 17β-estradiol). […] In addition, EC50 and/or IC50 values were determined from a nonlinear dose-response curve using JMF software.

In the case of `O=C(c1ccc(OCC(=O)N2CCOCC2)cc1)c1oc2cc3c(cc2c1-c1ccc(O)cc1)CCCO3` [2-[4-(morpholine-2-oxo-ethoxy)benzoyl]-3-(4-hydroxyphenyl)-6,7-dihydrogen-5H-furo[3,2-g]chromene], the inhibition at 5 µM [1] is reported as 12.4%, the “percentage of weight gain of uteri” value (uteri) is reported as 9.8% and the IC50 [2] is reported as 23.7 µM. It also gave an IC50 (MCF-7/ERE) of 4.9 µM.

`CCN(CC)CCOc1ccc(C(=O)c2oc3cc4c(cc3c2-c2ccc(O)cc2)CCCO4)cc1` [Example 56, 2-[4-(diethylaminoethoxy)benzoyl]-3-(4-hydroxyphenyl)-6,7-dihydrogen-5H-furo[3,2-g]chromene] was tested, and the inhibition at 5 µM [1] was 5.1%, the “percentage of weight gain of uteri” value (uteri) was 12.2% and the IC50 [2] was 17.1 µM. The IC50 (MCF-7/ERE) was 13.5 µM.

In the case of `CN(C)CCOc1ccc(C(=O)c2oc3cc4c(cc3c2-c2ccc(O)cc2)CCCO4)cc1` [Example 58, 2-[4-(dimethylaminoethoxy)benzoyl]-3-(4-hydroxyphenyl)-6,7-dihydrogen-5H-furo[3,2-g]chromene], the inhibition at 5 µM [1] is reported as 6.8%, the “percentage of weight gain of uteri” value (uteri) is reported as 0.6% and the IC50 [2] is reported as 43.6 µM. The IC50 (MCF-7/ERE) was 22.9 µM.

With `O=C(c1ccc(OCC(=O)N2CCCCC2)cc1)c1oc2cc3c(cc2c1-c1ccc(O)cc1)CCCO3` [Example 60, 2-[4-(piperidine-2-oxo-ethoxy)benzoyl]-3-(4-hydroxyphenyl)-6,7-dihydrogen-5H-furo[3,2-g]chromene] the inhibition at 5 µM [1] was 22.6%, the “percentage of weight gain of uteri” value (uteri) was 8.7% and the IC50 [2] was 14.5 µM. It also gave an IC50 (MCF-7/ERE) of 5.6 µM.

With `CCN(CC)C(=O)COc1ccc(C(=O)c2oc3cc4c(cc3c2-c2ccc(O)cc2)CCCO4)cc1` [Example 62, 2-[4-(diethylamino-2-oxo-ethoxy)benzoyl]-3-(4-hydroxyphenyl)-6,7-dihydrogen-5H-furo[3,2-g]chromene] the inhibition at 5 µM [1] was 36.8%, the “percentage of weight gain of uteri” value (uteri) was 38.8% and the IC50 [2] was 35.2 µM. For the same compound, the IC50 (MCF-7/ERE) was 42.3 µM.

For `CN(C)C(=O)COc1ccc(C(=O)c2oc3cc4c(cc3c2-c2ccc(O)cc2)CCCO4)cc1` [Example 64, 2-[4-(dimethylamino-2-oxo-ethoxy)benzoyl]-3-(4-hydroxyphenyl)-6,7-dihydrogen-5H-furo[3,2-g]chromene], the inhibition at 5 µM [1] was 44.9%, the “percentage of weight gain of uteri” value (uteri) was 26.2% and the IC50 [2] was 8.5 µM. It also gave an IC50 (MCF-7/ERE) of 21.8 µM.
